Measured values: the supplement of paper PMC10307832

Compound: N[C@@H]1CCCN(c2c(/C=C3\SC(=O)NC3=O)cccc2-c2ccccc2)C1 [AZD1208] + CC(=O)c1c(C)c2cnc(Nc3ccc(N4CCNCC4)cn3)nc2n(C2CCCC2)c1=O [Palbociclib] (partner 0.5 µM)
Assay: relative viability (nuclei count vs DMSO), 5 days (fraction); higher = more cells survive
Conditions: first compound 0.8 µM
Method in brief: (§1)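 One day after seeding in 1536-well plates, lung cancer cell lines were dosed by pin tool. Dosing was either single-drug or a fixed anchor-drug dose plus five library-drug doses (not always all listed) in √10 steps. After 5 days, nuclei were stained in one fix-and-stain step and counted on 4× images, and relative viability is the nuclei count of treated wells over that of vehicle wells, given as the median of duplicate plates.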

Cell Line | relative viability
LCLC-97TM1 | 0.199
NCI-H2023 | 0.333
A-427 | 0.495
NCI-H460 | 0.223
NCI-H727 | 0.64
NCI-H1734 | 0.313
NCI-H520 | 0.146
NCI-H2405 | 0.505
SW 1573 | 0.265
NCI-H1395 | 0.572
201T | 0.351
NCI-H1915 | 0.486
HCC-827 | 0.405
LXF-289 | 0.583
NCI-H2347 | 0.45

Same assay, conditions: first compound 2.53 µM

Cell Line | relative viability
NCI-H522 | 0.942
NCI-H838 | 0.187
NCI-H1650 | 0.323
NCI-H2009 | 0.208
NCI-H1993 | 0.544
PC-14 | 0.532
LCLC-103H | 0.462
NCI-H2228 | 0.6
EMC-BAC-2 | 0.494
NCI-H2087 | 0.241
HCC-366 | 0.404
NCI-H1666 | 0.605
NCI-H647 | 0.397
LK-2 | 0.294
NCI-H2126 | 0.33
NCI-H2342 | 0.548
SK-MES-1 | 0.307
H3255 | 0.314
COR-L23 | 0.295
COR-L 105 | 0.38
LOU-NH91 | 0.525
ChaGo-K-1 | 0.906
NCI-H2170 | 0.357
NCI-H3122 | 0.223

Cell Line | relative viability
HOP-62 | 0.439
HCC-44 | 0.968
SW 900 | 0.571
LU99A | 0.339
BEN | 0.505
HARA | 0.291
NCI-H1648 | 0.227
HCC-78 | 0.446
NCI-H441 | 0.178
LCLC-97TM1 | 0.216
NCI-H2023 | 0.373
A-427 | 0.551
NCI-H460 | 0.15
NCI-H727 | 0.614
NCI-H1734 | 0.325
NCI-H520 | 0.205
NCI-H2405 | 0.51
SW 1573 | 0.346
NCI-H1395 | 0.62
201T | 0.35
NCI-H1915 | 0.474
HCC-827 | 0.481
LXF-289 | 0.622
NCI-H2347 | 0.395

Same assay, conditions: first compound 8 µM

Cell Line | relative viability
NCI-H522 | 0.76
NCI-H838 | 0.201
NCI-H1650 | 0.35
NCI-H2009 | 0.181
NCI-H1993 | 0.432
PC-14 | 0.475
LCLC-103H | 0.434
NCI-H2228 | 0.656
EMC-BAC-2 | 0.432
NCI-H2087 | 0.219
HCC-366 | 0.245
NCI-H1666 | 0.672
NCI-H647 | 0.304
LK-2 | 0.266
NCI-H2126 | 0.382
NCI-H2342 | 0.456
SK-MES-1 | 0.311
H3255 | 0.326
COR-L23 | 0.244
COR-L 105 | 0.43
LOU-NH91 | 0.531
ChaGo-K-1 | 0.884
NCI-H2170 | 0.247
NCI-H3122 | 0.164

Cell Line | relative viability
HOP-62 | 0.469
HCC-44 | 1.02
SW 900 | 0.511
LU99A | 0.319
BEN | 0.431
HARA | 0.261
NCI-H1648 | 0.294
HCC-78 | 0.452
NCI-H441 | 0.23
LCLC-97TM1 | 0.19
NCI-H2023 | 0.332
A-427 | 0.527
NCI-H460 | 0.159
NCI-H727 | 0.56
NCI-H1734 | 0.255
NCI-H520 | 0.186
NCI-H2405 | 0.418
SW 1573 | 0.259
NCI-H1395 | 0.521
201T | 0.34
NCI-H1915 | 0.455
HCC-827 | 0.509
LXF-289 | 0.635
NCI-H2347 | 0.382

Compound: N[C@@H]1CCCN(c2c(/C=C3\SC(=O)NC3=O)cccc2-c2ccccc2)C1 [AZD1208] + O=C(c1cc(Cc2n[nH]c(=O)c3ccccc23)ccc1F)N1CCN(C(=O)C2CC2)CC1 [Olaparib] (partner 8 µM)
Assay: as above
Conditions: first compound 0.08 µM
Method in brief: as §1

Cell Line | relative viability
NCI-H522 | 0.527
NCI-H838 | 0.789
NCI-H1650 | 0.712
EBC-1 | 0.709
NCI-H1703 | 0.416
NCI-H2009 | 0.701
NCI-H1993 | 0.777
PC-14 | 0.381
LCLC-103H | 0.774
NCI-H596 | 0.706
NCI-H2228 | 0.557
EMC-BAC-2 | 0.517
NCI-H2087 | 0.543
Calu-6 | 0.572
HCC-366 | 0.352
NCI-H1666 | 0.762
NCI-H647 | 0.504
LK-2 | 0.677
